The values below come from ChEMBL document CHEMBL3616425, “Factors influencing the cytotoxicity of α-methylene-γ-hydroxy esters against pancreatic cancer” (2015).

The structures appear in SMILES notation.

What all share (assay type): functional
A short description of assay [1]: Cytotoxicity against human MIAPaCa2 cells assessed as cell growth at 10 uM after 72 hrs by Cell Titer 96 cell proliferation assay relative to control. To be noted: MIA PaCa-2, 72 h, read-out: Activity.
Assay [2] in a line: Cytotoxicity against human BxPC3 cells assessed as cell growth at 10 uM after 72 hrs by Cell Titer 96 cell proliferation assay relative to control. As to conditions: BXPC-3, 72 h, read-out: Activity.
The nature of assay [3]: Cytotoxicity against human PANC1 cells assessed as cell growth at 10 uM after 72 hrs by Cell Titer 96 cell proliferation assay relative to control. To be noted: PANC-1, 72 h, read-out: Activity.

`C=C(C(=O)OC)C(O)c1ccc(F)cc1` (stereo not given): the values for the growth at 10 µM in assay [1], in assay [2] and in assay [3] were 118%, 137% and 136%, respectively.
On to `C=C(C(=O)OC)C(O)c1ccc(C(F)(F)F)cc1` (stereo not given), for which the growth at 10 µM in assay [1] was determined as 27%; in assay [2] it was 69%; in assay [3], 93%.
Take `C=C(C(=O)OC)C(O)c1ccccc1` (stereo not given): the growth at 10 µM amounted to 119% in assay [1], 129% in assay [2] and 118% in assay [3].
The like results for `C=C(C(=O)OC)C(O)c1ccc([N+](=O)[O-])cc1` (stereo not given) were, in that order, 98%, 123% and 138%.
As for `C=C(C(=O)OC)C(C)CO` (stereo not given), the growth at 10 µM was determined as 124% in assay [1], 126% in assay [2] and 120% in assay [3].
Regarding `C=C(C(=O)OC)C(CO)C1CCCCC1` (stereo not given), the growth at 10 µM worked out at 98% in assay [1], 86% in assay [2] and 164% in assay [3].
For the compound `C=C(C(=O)OC)C(CO)c1ccccc1` (stereo not given), the results for the growth at 10 µM in assay [1], in assay [2] and in assay [3] were 29%, 60% and 102%, respectively.
As for `C=C(CC(O)c1ccccc1)C(=O)OC` (stereo not given), the figures for the growth at 10 µM in assay [1], in assay [2] and in assay [3] were 14%, 1% and 67%, respectively.
Regarding `C=C(C(=O)OCC)C(O)c1ccc(OC)cc1` (stereo not given), the growth at 10 µM in assay [1] is 110%; in assay [2], 130%; in assay [3], 108%.
Turning to `C=C(C(=O)OC)C(O)c1ccc(C#N)cc1` (stereo not given), the growth at 10 µM in assay [1] worked out at 94%; in assay [2] it was 126%; in assay [3], 131%.
Turning to `C=C(C(=O)OC)C(O)c1cccc(F)c1` (stereo not given), the growth at 10 µM came to 129% in assay [1], 134% in assay [2] and 166% in assay [3].
Take `C=C(C(=O)OC)C(O)c1ccccc1F` (stereo not given): the figures for the growth at 10 µM in assay [1], in assay [2] and in assay [3] were 128%, 137% and 157%, respectively.
Turning to `C=C(C(=O)OC)C(O)c1c(F)c(F)c(F)c(F)c1F` (stereo not given), the growth at 10 µM in assay [1] worked out at 111%; in assay [2], 117%; in assay [3], 147%.
For the compound `C=C(C(=O)OC)C(O)c1ccccc1C(F)(F)F` (stereo not given), the growth at 10 µM in assay [1] worked out at 127%; in assay [2], 142%; in assay [3] it was 169%.
In the case of `C=C1C(=O)OC1c1ccc(C#N)cc1` (stereo not given), the growth at 10 µM came to 99% in assay [1], 116% in assay [2] and 102% in assay [3].
In the case of `C=C1C(=O)OC1c1ccc([N+](=O)[O-])cc1` (stereo not given), the growth at 10 µM in assay [1] turned out to be 123%; in assay [2], 133%; in assay [3], 136%.
For the compound `C=C(C(=O)O)C(O)c1ccccc1` (stereo not given), the results for the growth at 10 µM in assay [1], in assay [2] and in assay [3] were 94%, 110% and 127%, respectively.
In the case of `C=C(C(=O)O)C(O)c1ccc(OC)cc1` (stereo not given), the results for the growth at 10 µM in assay [1], in assay [2] and in assay [3] were 106%, 110% and 125%, respectively.
The like results for `C=C(C(=O)O)C(O)c1ccc(C#N)cc1` (stereo not given) were, in that order, 92%, 114% and 108%.
Take `C=C(C(=O)O)C(O)c1ccc([N+](=O)[O-])cc1` (stereo not given): the growth at 10 µM in assay [1] is 130%; in assay [2] it was 124%; in assay [3], 134%.
On to `C=C(C(=O)O)C(O)c1ccc(C(F)(F)F)cc1` (stereo not given), for which the figures for the growth at 10 µM in assay [1], in assay [2] and in assay [3] were 119%, 121% and 129%, respectively.
For `C=C1C(=O)O[C@@H]2C3O[C@]3(C)CC/C=C(\C)CC[C@@H]12` (stereo not given in full), the growth at 10 µM in assay [1] stood at 11%; in assay [2], 12%; in assay [3], 22%.
`C=C1C(=O)O[C@H](c2ccccc2)[C@@H]1c1ccccc1` (relative stereo): the growth at 10 µM was 9% in assay [1], 3% in assay [2] and 12% in assay [3].
For `C=C(C(=O)OC)[C@@H](c1ccccc1)[C@H](O)c1ccccc1` (relative stereo), the growth at 10 µM was determined as 9% in assay [1], 2% in assay [2] and 14% in assay [3].
On to `C=C(C(=O)OC)[C@@H](C)[C@@H](C)O` (relative stereo), for which the growth at 10 µM was found to be 147% in assay [1], 122% in assay [2] and 110% in assay [3].
Turning to `C=C(C(=O)OC)[C@@H](C1CCCCC1)[C@@H](C)O` (relative stereo), the growth at 10 µM in assay [1] was found to be 77%; in assay [2] it was 120%; in assay [3], 145%.
As to `C=C(C(=O)OC)[C@@H](C)[C@H](O)c1ccccc1` (relative stereo), the growth at 10 µM in assay [1] was determined as 32%; in assay [2], 49%; in assay [3], 91%.
Turning to `C=C(C(=O)OC)[C@@H](CCC)[C@H](O)c1ccccc1` (relative stereo), the growth at 10 µM in assay [1] amounted to 32%; in assay [2], 38%; in assay [3], 104%.
Turning to `C=C(C(=O)OC)[C@@H](c1ccccc1)[C@@H](C)O` (relative stereo), the growth at 10 µM in assay [1] was 24%; in assay [2] it was 27%; in assay [3] it was 96%.
In the case of `C=C(C(=O)OC)[C@@H](c1ccccc1)[C@H](O)C1CCCCC1` (relative stereo), the growth at 10 µM in assay [1] is 29%; in assay [2] it was 23%; in assay [3], 83%.
As for `C=C(C(=O)OC)[C@@H](c1ccccc1)[C@H](O)CCC` (relative stereo), the growth at 10 µM in assay [1] amounted to 16%; in assay [2], 8%; in assay [3], 33%.
As for `C=C(C(=O)OC)[C@@H](c1ccccc1)[C@H](O)Cc1ccccc1` (relative stereo), the values for the growth at 10 µM in assay [1], in assay [2] and in assay [3] were 16%, 6% and 14%, respectively.
With `C=C(C(=O)OC)[C@@H](c1ccccc1)[C@H](OC)c1ccccc1` (relative stereo), the growth at 10 µM in assay [1] was determined as 102%; in assay [2], 94%; in assay [3] it was 123%.
As for `C=C(C(=O)OC)[C@@H](c1ccccc1)[C@H](O[Si](C)(C)C(C)(C)C)c1ccccc1` (relative stereo), the growth at 10 µM in assay [1] is 110%; in assay [2] it was 117%; in assay [3], 135%.
The like results for `C=C(C(=O)OCC)[C@@H](c1ccccc1)[C@H](O)c1ccccc1` (relative stereo) were, in that order, 13%, 3% and 5%.
For the compound `C=C(C(=O)OCc1ccccc1)[C@@H](c1ccccc1)[C@H](O)c1ccccc1` (relative stereo), the growth at 10 µM in assay [1] came out at 12%; in assay [2] it was 2%; in assay [3] it was 6%.
The like results for `C=C(C(=O)Oc1ccccc1)[C@@H](c1ccccc1)[C@H](O)c1ccccc1` (relative stereo) were, in that order, 8%, 1% and 9%.
As to `C=C(C(C)=O)[C@@H](c1ccccc1)[C@H](O)c1ccccc1` (relative stereo), the growth at 10 µM in assay [1] came out at 53%; in assay [2], 104%; in assay [3], 105%.
Turning to `C=C(C[C@@H](c1ccccc1)[C@H](O)c1ccccc1)C(=O)OC` (relative stereo), the growth at 10 µM in assay [1] came to 59%; in assay [2], 129%; in assay [3], 124%.
Consider `O=C1O[C@H](c2ccccc2)[C@H](c2ccccc2)/C1=C\c1ccccc1` (relative stereo), for which the values for the growth at 10 µM in assay [1], in assay [2] and in assay [3] were 87%, 117% and 105%, respectively.
